Where “and” joins values, the source holds several entries; their conditions need not be identical. Equal entries are not always repeated.
Legend:
burns = test: Treating burns with EGF; type: in vivo; conditions: 0.001% (g) of EGF
[1] = tested on: right facial non-healing ulcer; test: Individual suffering from prolonged unhealed surgical wound; type: in vivo, human; conditions: Patient D
From the text: Patient D was admitted for investigation of right facial non-healing ulcer after extraction of right mandibular molars and excision of facial fistula eleven months ago. […] There was sloughing of the right mandibular alveolus and the wound was tender. […] However, “definitively negative finding for malignancy nor basal cell carcinoma, quite normal looking oral epithelial mucosa” was reported by a pathologist. […] Patient was reviewed after two weeks of hEGF (0.04% (g/g)) local application. The composition is the same as that used in the above Group-3 patients. The right facial wound was healing, base of the wound looked fleshy with no discharge. The wound area decreased in size by about 30%.

diabetes ulcers = test: Individuals suffering from prolonged diabetes ulcers treated with 0.04% hEGF composition; type: in vivo, human; conditions: 0.04% (g/g) hEGF
Procedure: Three patients suffering from prolonged diabetes ulcers were treated with the composition of this invention containing 0.04% (g/g) hEGF. The following results were observed, with all of the patients were healed after as short as four weeks treatment: […]

diabetic foot ulcer = test: Randomized double-blind controlled trial of hEGF in diabetic foot ulcer healing; type: in vivo, human; conditions: for 100% Healed Time, mean survival time: Kaplan Meier; for healing rate by the end of 12 weeks: topical daily
Procedure: A randomized double-blind controlled trial was conducted to study the efficacy of human epidermal growth factor hEGF) in promoting diabetic foot ulcer healing with 88 patients. Predetermined criteria were used for patient selection, they were; ulcer grade 1-2, ulcer located below the ankle, adequate perfusion as indicated by an ankle brachial-index of ≧0.7. Patients were excluded if: sugar control was very poor (HbAlc≧12%), or had severe grade ulcers (≧3). Initial assessment and standard wound care and debridement was given as in an ordinary diabetic foot clinic. The patients were reviewed two weeks later. In the second consultation, patients whose ulcer healed more than 25% with conventional foot ulcer care were excluded. Informed consent was obtained from the remaining patients and randomization was done by drawing envelopes, although the patients were blind to the concentrations of hEGF during the experiments. The final candidates were randomly assigned into three groups: • 1. Group 1 were treated with Acetovegin® 5% cream alone, which has the following compositions as indicated in the package of the cream: 1 g of cream contains 2 mg (corresponding to dry mass) of deproteinized hemoderivative of calf blood, and 0.2 mg of benzalkonium chloride. There was no particular reason in choosing Acetovegin® 5% cream as the control other than this cream was available at the clinic where the experiments were conducted. • 2. Group 2 patients were treated with Acetovegin® 5% cream (with composition as stated above) plus 0.02% (g/g) hEGF. • 3. Group 3 patients were treated with Acetovegin® 5% cream (with composition as stated above) plus 0.04% (g/g) hEGF. All patients were followed up on a biweekly bass for wound care and debridement and trimming of keratosis. Antibiotic would be given if it was infected as indicated by purulent discharge or by positive bacterial culture. Photos of the wound's size were being taken for computer measurement and comparing with a reference area having a known size. Local application of study cream was applied and covered with sterile gauze. Patients were instructed to have daily normal saline dressing and local application of cream in the government out-patient-clinic or community nurse would be asked to have home visit for those with ambulatory problem. Wound parameters, such as exudates sign of infection granulation tissue and eschar were documented in each visit and complete healing was defined as full epithelialization of the wound with absence of discharge. Analysis was based on intention to treat and Kaplan Meier survival analysis was employed to compare the healing rate between different groups. One way ANOVA was used for clinical parameters analysis. If more than one wound was present in one patient the total areas of the ulcers was taken together and treated as one single wound. Of the 30 patients that suffered from unhealed ulcers they were randomly assigned into 3 groups as stated above: Group-1 (9/30), the control, was treated with Acetovegin® 5% cream alone; Group-2 (9/30) was treated with Acetovegin® 5% cream plus 0.02% (g/g) hEGF; Group-3, (14/32) Acetovegin® 5% cream plus 0.04% (g/g) hEGF. The end point of a treatment was defined as complete closure of the wound, whereas failure to heal was defined as incomplete healing after 12 weeks of treatment. The experiment in Example 1 was repeated using Acetovegin® 5% cream plus 0.03% (g/g) hEGF. 8 patients, named Group-4, were treated.

bedsore = test: Individual suffering from bedsore; type: in vivo, human; conditions: 0.04% (g/g) EGF daily with normal saline dressing, after three-month treatment
Procedure: Patient B was bedridden at aged home for several years. […] They were referred to medical because the wound got worse with central grangrene after a two-month treatment.
They were then treated with Hibitane dressing for two weeks then normal saline dressing with the composition of this invention containing 0.04% (g/g) EGF daily.

corneal and burn wounds = conditions: EGF 10 μg/ml; cited from earlier work
venous stasis ulcers = conditions: EGF 10 μg/ml; cited from earlier work
[2] = Patient A, after 2 weeks treatment
[3] = Patient A, after 3 weeks treatment
[4] = Patient B, after 3 weeks treatment
[5] = Patient B, after 5 weeks treatment
[6] = Patient B, after 9 weeks treatment
[7] = Patient C, after 4 weeks treatment
[8] = Patient C, after 6 weeks treatment

## human epidermal growth factor [hEGF]
burns
  effect on wound healing of burns: effective in accelerating wound healing
[1]; 0.04% (g/g) hEGF local application, after two weeks
  decrease of wound area in size: about 30%
[1]; 0.04% hEGF applied locally, after 5 weeks
  reduction of wound in size: approximately 50%
Diabetes ulcers; [2]
  Healing Rate: 36.25%
  Ulcer Area: 1.02 cm^2
Diabetes ulcers; [3]
  Healing Rate: 100%
  Ulcer Area: 0 cm^2
Diabetes ulcers; [4]
  Healing Rate: 43.18%
  Ulcer Area: 3.79 cm^2
Diabetes ulcers; [5]
  Healing Rate: 75.71%
  Ulcer Area: 1.62 cm^2
Diabetes ulcers; [6]
  Healing Rate: 97.60%
  Ulcer Area: 0.16 cm^2
Diabetes ulcers; [7]
  Healing Rate: 89.34%
  Ulcer Area: 1.41 cm^2
Diabetes ulcers; [8]
  Healing Rate: 100%
  Ulcer Area: 0 cm^2
Diabetic foot ulcer; 0.02% (g/g) EGF
  total healing outcome: may fail to achieve totally healing in some cases
Diabetic foot ulcer; 0.02% (g/g) or 0.04% (g/g) EGF
  reduction of the time required to achieve 50% healing: 2-4 weeks
Diabetic foot ulcer; 0.03% (g/g) EGF
  results compared with 0.04% (g/g) EGF: almost indistinguishable
Diabetic foot ulcer; 0.04% (g/g) EGF
  total healing outcome: all of the patients were totally healed after 12 wee
Diabetic foot ulcer; Group-2, 0.02% (g/g) hEGF
  50% Healed Time, mean survival time: 5.71±1.02 weeks and 5.71 weeks
  50% Healed Time, median survival time: 6.00 weeks
  100% Healed Time, mean survival time: 9.43±1.38 weeks and 9.43 weeks
Diabetic foot ulcer; Group-2, 0.02% (g/g) hEGF, limited to 12 weeks
  100% Healed Time, median survival time: 12.00 weeks
Diabetic foot ulcer; Group-2: Acetovegin 5% cream plus 0.02% (g/g) hEGF
  healing rate by the end of 12 weeks: 55%
Diabetic foot ulcer; Group-3, 0.04% (g/g) hEGF
  50% Healed Time, mean survival time: 4.50±0.82 weeks and 4.50 weeks
  50% Healed Time, median survival time: 4.00 weeks
  100% Healed Time, median survival time: 6.00 weeks
  100% Healed Time, mean survival time: 6.67 weeks
Diabetic foot ulcer; Group-3: Acetovegin 5% cream plus 0.04% (g/g) hEGF
  healing rate by the end of 12 weeks: 100%
Diabetic foot ulcer; Group-4, 0.03% (g/g) hEGF
  100% healing time, median survival time: 6 weeks
Diabetic foot ulcer; Group-4, 0.03% (g/g) hEGF, 2 weeks
  Cumulative Survival (unhealed fraction): 0.8750
Diabetic foot ulcer; Group-4, 0.03% (g/g) hEGF, 4 weeks
  Cumulative Survival (unhealed fraction): 0.6250
Diabetic foot ulcer; Group-4, 0.03% (g/g) hEGF, 6 weeks
  Cumulative Survival (unhealed fraction): 0.5000
Diabetic foot ulcer; Group-4, 0.03% (g/g) hEGF, 8 weeks
  Cumulative Survival (unhealed fraction): 0.3750
Diabetic foot ulcer; Group-4, 0.03% (g/g) hEGF, 10 weeks
  Cumulative Survival (unhealed fraction): 0.2500
Diabetic foot ulcer; Group-4, 0.03% (g/g) hEGF, 12 weeks
  Cumulative Survival (unhealed fraction): 0.1250
Diabetic foot ulcer; Group-4, Acetovegin 5% cream plus 0.03% (g/g) hEGF
  100% healing time, mean survival time (limited to 12): 7 weeks
bedsore
  wound outcome: healed and completely closed
Corneal and burn wounds
  healing of corneal and burn wounds: promote healing
Venous stasis ulcers
  epithelization in wounds of patients with venous stasis ulcers: failed to promote epithelization
